What is called pIC50 is the negative decadic logarithm of the IC50, by convention in mol/L. What is called pEC50 is −log10 of the EC50, conventionally taken in molar units.

This passage reports IC50 and EC50 results from patent publication US20220213092A1, “BICYCLIC PYRAZOLE BRUTON'S TYROSINE KINASE INHIBITORS” (AbbVie Inc., priority 2020, published 2022).

pEC50, pIC50: −log10 of the molar value.

For one assay, the target named is T1, BTK (Homo sapiens, UniProt Q06187).
T1 construct: purchased Nanosyn, Santa Clara, Calif; host or cells: 293HEK
T1 sequence (Q06187 whole entry): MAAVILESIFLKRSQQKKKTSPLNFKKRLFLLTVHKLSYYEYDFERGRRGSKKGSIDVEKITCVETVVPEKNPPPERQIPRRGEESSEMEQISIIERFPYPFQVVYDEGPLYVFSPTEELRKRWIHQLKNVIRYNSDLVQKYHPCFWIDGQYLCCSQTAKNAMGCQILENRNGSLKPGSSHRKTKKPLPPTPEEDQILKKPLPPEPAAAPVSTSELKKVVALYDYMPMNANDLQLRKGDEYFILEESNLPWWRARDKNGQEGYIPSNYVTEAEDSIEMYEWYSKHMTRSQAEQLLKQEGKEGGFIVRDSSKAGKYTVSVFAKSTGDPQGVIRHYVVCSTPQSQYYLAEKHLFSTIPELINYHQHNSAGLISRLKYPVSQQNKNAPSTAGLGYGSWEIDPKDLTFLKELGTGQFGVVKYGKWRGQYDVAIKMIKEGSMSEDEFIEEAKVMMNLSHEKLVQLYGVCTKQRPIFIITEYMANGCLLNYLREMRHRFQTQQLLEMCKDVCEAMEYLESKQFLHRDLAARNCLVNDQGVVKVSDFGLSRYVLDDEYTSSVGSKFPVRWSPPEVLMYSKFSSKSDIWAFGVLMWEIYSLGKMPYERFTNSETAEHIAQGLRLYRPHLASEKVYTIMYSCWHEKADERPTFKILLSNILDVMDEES
The assay can be described thus: BTK kinase electrophoretic mobility shift assay (MSA). In kind it is biochemical. Conditions: 50 μM ATP, 0.5 nM BTK enzyme (Nanosyn-293HEK, WT), 3 hours at 25° C.; all examples except 50, 51, 62 and 63; read-out: BTK IC50.

The target in assay [1] is T2, Phosphorylation of Y223 of BTK (Homo sapiens, UniProt Q06187).
T2 construct: host or cells: healthy human whole blood, 3 donors
T2 sequence (Q06187 whole entry): as above
The assay can be described thus: Whole blood compound screening, phosphorylation of Y223 site of BTK (MSD assay). The format is cell-based. Particulars: healthy human whole blood, 2 hours at 37° C., 3 separate donors; read-out: WB BTK-pY223 EC50. The method, then: Healthy human whole blood (WB) was collected from […]™ Technologies or […]® in sodium heparinized tubes. Whole blood was stored at ambient temperature to avoid coagulation. Each compound was tested in 3 separate donors. Compound stock solutions (10 mM) were used to generate dose titration (8 concentrations, starting concentration 10 μM, 1:4 dilution) in appropriate volume of dimethyl sulfoxide (0.2%). Whole blood was incubated with compounds in 96-well plates for 2 hours in tissue culture incubators at 37° C. under a 5% CO2 atmosphere. The whole blood was lysed in equal volume of lysis buffer (Cell Signaling Technology®, Danvers, Mass.) containing complete protease inhibitor tablet, PhosSTOP™ tablet, sodium orthovanadate and sodium fluoride and phenylmethanesulfonyl fluoride solution. The lysed whole blood was then frozen at −80° C. for overnight.
Phosphorylation of Y223 of BTK was measured using an MSD assay (Meso Scale Diagnostics, LLC, Rockville, Md.). The thawed lysed whole blood was incubated with the capturing antibody rabbit anti-human BTK (D3H5) (Cell Signaling Technology, Danvers, Mass.) at 4° C. overnight. After washing out the unbound samples, the detection antibody biotinylated rabbit anti-pY223-BTK(D9T6H) (Cell Signaling Technology®, Danvers, Mass.) was added to the plates. After washing out the unbound antibodies, SULFO-TAG Streptavidin (Meso Scale Diagnostics, LLC, Rockville, Md.) was used for detection on Meso Sector S600 (Meso Scale Diagnostics, LLC, Rockville, Md.).
The EC50 values were determined using software from Dotmatics. The activity of exemplary compounds is illustrated below.

On to `C=CC(=O)N1CCN([C@@H]2CCNc3c2nn(-c2ccc(Oc4cccc(F)c4)cc2)c3C(N)=O)CC1` [Example 67, (7R)-2-[4-(3-fluorophenoxy)phenyl]-7-[4-(prop-2-enoyl)piperazin-1-yl]-4,5,6,7-tetrahydro-2H-pyrazolo[4,3-b]pyridine-3-carboxamide], for which, on BTK, the pIC50 was 9.13. The pEC50 in assay [1] was 7.73.
In the same order, the values of `C=CC(=O)N1CCN([C@@H]2CCNc3c2nn(-c2ccc(Oc4ccccc4C4CC4)cc2)c3C(N)=O)CC1` [Example 68, (7R)-2-[4-(2-cyclopropylphenoxy)phenyl]-7-[4-(prop-2-enoyl)piperazin-1-yl]-4,5,6,7-tetrahydro-2H-pyrazolo[4,3-b]pyridine-3-carboxamide] are 8.50 and 7.02.
As for `C=CC(=O)N1CCN([C@@H]2CCNc3c2nn(-c2ccc(Oc4ccccc4C#N)cc2)c3C(N)=O)CC1` [Example 69, (7R)-2-[4-(2-cyanophenoxy)phenyl]-7-[4-(prop-2-enoyl)piperazin-1-yl]-4,5,6,7-tetrahydro-2H-pyrazolo[4,3-b]pyridine-3-carboxamide], the pIC50 on BTK was 8.66. Moreover, the pEC50 in assay [1] was 7.53.
In the same order, the values of `C=CC(=O)N1CCN([C@@H]2CCNc3c2nn(-c2ccc(Oc4ccc(F)cc4F)cc2)c3C(N)=O)CC1` [Example 70, (7R)-2-[4-(2,4-difluorophenoxy)phenyl]-7-[4-(prop-2-enoyl)piperazin-1-yl]-4,5,6,7-tetrahydro-2H-pyrazolo[4,3-b]pyridine-3-carboxamide] are 8.15 and 6.62.
In the same order, the values of `C=CC(=O)N1CCN([C@@H]2CCNc3c2nn(-c2ccc(Oc4ccc(F)cc4)cc2)c3C(N)=O)CC1` [Example 71, (7R)-2-[4-(4-fluorophenoxy)phenyl]-7-[4-(prop-2-enoyl)piperazin-1-yl]-4,5,6,7-tetrahydro-2H-pyrazolo[4,3-b]pyridine-3-carboxamide] are 7.64 and 6.55.
Turning to `C=CC(=O)N1C2CC1CN([C@H]1CCNc3c1nn(-c1ccc(Oc4ccccc4)cc1)c3C(N)=O)C2` [Example 72, (7S)-2-(4-phenoxyphenyl)-7-[6-(prop-2-enoyl)-3,6-diazabicyclo[3.1.1]heptan-3-yl]-4,5,6,7-tetrahydro-2H-pyrazolo[4,3-b]pyridine-3-carboxamide], on BTK, the pIC50 is 8.11. Further, in assay [1], the pEC50 is 7.66.
For `C=CC(=O)N1C2CC1CN([C@@H]1CCNc3c1nn(-c1ccc(Oc4ccccc4)cc1)c3C(N)=O)C2` [Example 73, (7R)-2-(4-phenoxyphenyl)-7-[6-(prop-2-enoyl)-3,6-diazabicyclo[3.1.1]heptan-3-yl]-4,5,6,7-tetrahydro-2H-pyrazolo[4,3-b]pyridine-3-carboxamide], the pIC50 on BTK is 7.80. Also, the pEC50 in assay [1] is 6.59.
In the same order, the values of `C=CC(=O)N1CCN([C@@H]2CCNc3c2nn(-c2ccc(Oc4cc(F)ccc4F)cc2)c3C(N)=O)CC1` [Example 74, (7R)-2-[4-(2,5-difluorophenoxy)phenyl]-7-[4-(prop-2-enoyl)piperazin-1-yl]-4,5,6,7-tetrahydro-2H-pyrazolo[4,3-b]pyridine-3-carboxamide] are 8.82 and 7.25.
As for `C=CC(=O)N1CC(N2CCNc3c2nn(-c2ccc(Oc4ccccc4F)cc2)c3C(N)=O)C1` [Example 75, 2-[4-(2-fluorophenoxy)phenyl]-7-[1-(prop-2-enoyl)azetidin-3-yl]-4,5,6,7-tetrahydro-2H-pyrazolo[3,4-b]pyrazine-3-carboxamide], the pIC50 on BTK was 8.94. Also, in assay [1], the pEC50 is 7.21.
As for `C=CC(=O)N1CC(N2CCNc3c2nn(-c2ccc(Oc4cccc(F)c4F)cc2)c3C(N)=O)C1` [Example 76, 2-[4-(2,3-difluorophenoxy)phenyl]-7-[1-(prop-2-enoyl)azetidin-3-yl]-4,5,6,7-tetrahydro-2H-pyrazolo[3,4-b]pyrazine-3-carboxamide], at BTK, the pIC50 is 9.01. Also, the pEC50 in assay [1] is 7.07.
In the same order, the values of `C=CC(=O)N1CCN([C@@H]2CCNc3c2nn(-c2ccc(Oc4cccc(F)c4F)cc2)c3C(N)=O)CC1` [Example 77, (7R)-2-[4-(2,3-difluorophenoxy)phenyl]-7-[4-(prop-2-enoyl)piperazin-1-yl]-4,5,6,7-tetrahydro-2H-pyrazolo[4,3-b]pyridine-3-carboxamide] are 9.27 and 7.50.
`C=CC(=O)N1CCN([C@@H]2CCNc3c2nn(-c2ccc(Oc4cccc(C5CC5)c4)cc2)c3C(N)=O)CC1` [Example 78, (7R)-2-[4-(3-cyclopropylphenoxy)phenyl]-7-[4-(prop-2-enoyl)piperazin-1-yl]-4,5,6,7-tetrahydro-2H-pyrazolo[4,3-b]pyridine-3-carboxamide]: the pIC50 on BTK was 9.17. The pEC50 in assay [1] was 7.24.
In the same order, the values of `C=CC(=O)N1CC(N2CCNc3c2nn(-c2ccc(Oc4ccc(F)cc4F)cc2)c3C(N)=O)C1` [Example 81, 2-[4-(2,4-difluorophenoxy)phenyl]-7-[1-(prop-2-enoyl)azetidin-3-yl]-4,5,6,7-tetrahydro-2H-pyrazolo[3,4-b]pyrazine-3-carboxamide] are 8.28 and 7.12.
Regarding `C=CC(=O)N1CCN([C@@H]2CCNc3c2nn(-c2ccc(Oc4ccccc4)cc2)c3C(N)=O)CC12CC2` [Example 82, (7R)-2-(4-phenoxyphenyl)-7-[4-(prop-2-enoyl)-4,7-diazaspiro[2.5]octan-7-yl]-4,5,6,7-tetrahydro-2H-pyrazolo[4,3-b]pyridine-3-carboxamide], at BTK, the pIC50 was 9.29. Moreover, the negative-log EC50 (pEC50) in assay [1] was 7.36.
In the same order, the values of `C=CC(=O)N1CCN([C@H]2CCNc3c2nn(-c2ccc(Oc4ccccc4)cc2)c3C(N)=O)CC12CC2` [Example 83, (7S)-2-(4-phenoxyphenyl)-7-[4-(prop-2-enoyl)-4,7-diazaspiro[2.5]octan-7-yl]-4,5,6,7-tetrahydro-2H-pyrazolo[4,3-b]pyridine-3-carboxamide] are 7.18 and 5.76.
On to `C=CC(=O)N1CCC(O)(C2CCNc3c2nn(-c2ccc(Oc4ccccc4)cc2)c3C(N)=O)CC1` (centres unmarked) [Example 84, 7-[4-hydroxy-1-(prop-2-enoyl)piperidin-4-yl]-2-(4-phenoxyphenyl)-4,5,6,7-tetrahydro-2H-pyrazolo[4,3-b]pyridine-3-carboxamide], for which, on BTK, the pIC50 was 8.85. Further, in assay [1], the pEC50 is 7.34.
On the same counts, the results for `C=CC(=O)N1CCN([C@@H]2CCNc3c2nn(-c2ccc(Oc4ccc(OC(F)(F)F)cc4)cc2)c3C(N)=O)CC1` [Example 85, (7R)-7-[4-(prop-2-enoyl)piperazin-1-yl]-2-{4-[4-(trifluoromethoxy)phenoxy]phenyl}-4,5,6,7-tetrahydro-2H-pyrazolo[4,3-b]pyridine-3-carboxamide] are 6.97 and 5.69.
With `C=CC(=O)N1CCN([C@@H]2CCNc3c2nn(-c2ccc(Oc4ccccc4C)cc2)c3C(N)=O)CC1` [Example 86, (7R)-2-[4-(2-methylphenoxy)phenyl]-7-[4-(prop-2-enoyl)piperazin-1-yl]-4,5,6,7-tetrahydro-2H-pyrazolo[4,3-b]pyridine-3-carboxamide], the pIC50 on BTK was 9.15. Besides, the pEC50 in assay [1] was 6.50.
On to `C=CC(=O)N1CCN([C@@H]2CCNc3c2nn(-c2ccc(Oc4ccc(OC)cc4)cc2)c3C(N)=O)CC1` [Example 87, (7R)-2-[4-(4-methoxyphenoxy)phenyl]-7-[4-(prop-2-enoyl)piperazin-1-yl]-4,5,6,7-tetrahydro-2H-pyrazolo[4,3-b]pyridine-3-carboxamide], for which the pIC50 on BTK is 8.48. In addition, the pEC50 in assay [1] is 6.79.
In the same order, the values of `C=CC(=O)N1CCN([C@@H]2CCNc3c2nn(-c2ccc(Oc4cccc(C)c4)cc2)c3C(N)=O)CC1` [Example 88, (7R)-2-[4-(3-methylphenoxy)phenyl]-7-[4-(prop-2-enoyl)piperazin-1-yl]-4,5,6,7-tetrahydro-2H-pyrazolo[4,3-b]pyridine-3-carboxamide] are 9.10 and 6.65.
In the same order, the values of `C=CC(=O)N1CCN([C@@H]2CCNc3c2nn(-c2ccc(Oc4cccc(OC(F)(F)F)c4)cc2)c3C(N)=O)CC1` [Example 89, (7R)-7-[4-(prop-2-enoyl)piperazin-1-yl]-2-{4-[3-(trifluoromethoxy)phenoxy]phenyl}-4,5,6,7-tetrahydro-2H-pyrazolo[4,3-b]pyridine-3-carboxamide] are 8.76 and 6.28.
On the same counts, the results for `C=CC(=O)N1CCN([C@@H]2CCNc3c2nn(-c2ccc(Oc4ccccc4OC(F)(F)F)cc2)c3C(N)=O)CC1` [Example 90, (7R)-7-[4-(prop-2-enoyl)piperazin-1-yl]-2-{4-[2-(trifluoromethoxy)phenoxy]phenyl}-4,5,6,7-tetrahydro-2H-pyrazolo[4,3-b]pyridine-3-carboxamide] are 8.89 and 6.03.
